The target in one experiment is estrogen receptor. Briefly: Scatchard analysis of ligand binding affinity on receptor-programmed reticulocyte lysate. To be noted: Scatchard analysis at receptor dilutions giving signal:noise ~10. How it is done:
The volume of receptor-programmed reticulocyte lysate to be added to the binding assay can be determined independently from two measurements made on each batch of receptor prepared. First, Kis are determined for standard compounds using a series of dilutions of the receptor preparation. Scatchard analysis of ligand binding affinity is performed at the receptor dilutions that produced reported Kis for these compounds and an acceptable signal:noise ratio (˜10).

For experiment [1] the following is noted: humans, single agent therapy, circulating in the blood; Blackledge et al, Urology 1996; cited from earlier work.

pKd: −log10 of the molar value.

On estrogen receptor, `CC12CCC3c4ccc(O)cc4CCC3C1CC([125I])C2O` (stereo not drawn) [[^125I]-estradiol, [^125I]-16α-iodo-3,17β-estradiol] showed a pKd of 9.00 to 10.00.

As to `CC(O)(CS(=O)(=O)c1ccc(F)cc1)C(=O)Nc1ccc(C#N)c(C(F)(F)F)c1` (stereo not drawn) [bicalutamide, 4′-cyano-α′,α′,α′-trifluoro-3-(4-fluorophenylsulphonyl)-2-hydroxy-2-methylpropiono-m-toluidide], the “basal level of total testosterone” value in experiment [1] is on record as “approximate doubling”.

As usually defined, the pKd is the Kd on a negative log10 scale, so that one unit is a factor of ten. Low readings indicate a high Kd, high ones a low Kd.

Values taken from patent US20040204390A1, “Pharmaceutical combination comprising an anti-androgen and an oestrogen receptor beta agonist” (priority 2001, published 2004).
